Data: patent publication EP0627929B1, “INHIBITORS OF THROMBOSIS” (CORVAS INTERNATIONAL, INC., priority 1992, dated 1993)
Like-named read-outs stand apart in the source and are kept apart here. Peptide text beside a SMILES is read from it. * marks the point of attachment. Hydrocinnamoyl = O=C(CCc1ccccc1)*

Columns and labels:
Human factor Xa = molecular target: T1, Human factor Xa (Homo sapiens, UniProt P00742); experiment: Factor Xa assay: inhibition of chromogenic substrate (S2765) hydrolysis; format: biochemical; conditions: human factor Xa 0.5 nM, substrate 250 µM, 30 minute incubation, HBSA pH 7.5
T1 construct: Human factor Xa was prepared from purified human factor X obtained from Enzyme Research Laboratories; purchased Enzyme Research Laboratories
Method: In the assays for thrombin, factor Xa and plasmin, a chromogenic synthetic substrate is added to a solution containing test compound and the enzyme of interest and the residual catalytic activity of that enzyme is determined spectrophometrically. The IC50 of compound is determined from the substrate turnover. […] The buffer used for all assays was HBSA (10 mM HEPES, pH 7.5, 150 mM sodium chloride, 0.1% bovine serum albumin). […] Following a 30 minute incubation at ambient temperature, 50 μL of the substrate at the concentrations specified below, was added to the wells yielding a final total volume of 200 μL. […] Factor Xa catalytic activity was determined using the substrate, S2765 (N-α-benzyloxycarbonyl-[…]-nitroanilide dihydrochloride) which was obtained from Kabi Diagnostica. […] Human factor Xa was prepared from purified human factor X obtained from Enzyme Research Laboratories according to the method described by Bock, P.E. et al., Archives of Biochem. Biophys. […] The enzyme was diluted into HBSA prior to the assay in which the final concentration was 0.5 nM.

human α-thrombin = human α-thrombin (Homo sapiens, UniProt P00734); experiment: Thrombin assay: inhibition of chromogenic substrate (Pefachrome t-PA) hydrolysis; format: biochemical; conditions: purified human α-thrombin 0.25 nM, substrate 300 µM, 30 minute incubation, HBSA pH 7.5
Method: (§1) In the assays for thrombin, factor Xa and plasmin, a chromogenic synthetic substrate is added to a solution containing test compound and the enzyme of interest and the residual catalytic activity of that enzyme is determined spectrophometrically. The IC50 of compound is determined from the substrate turnover. […] The buffer used for all assays was HBSA (10 mM HEPES, pH 7.5, 150 mM sodium chloride, 0.1% bovine serum albumin). […] Following a 30 minute incubation at ambient temperature, 50 µL of the substrate at the concentrations specified below, was added to the wells yielding a final total volume of 200 µL.

human plasmin = human plasmin (Homo sapiens, UniProt P00747); experiment: Plasmin assay: inhibition of chromogenic substrate (S-2251) hydrolysis; format: biochemical; conditions: purified human plasmin 1.0 nM, substrate 300 µM, 30 minute incubation, HBSA pH 7.5
Method: as §1, with “μL” for “µL”, “μL. […] Plasmin catalytic activity was determined using the chromogenic substrate, […] dihydrochloride], which was obtained from Kabi Diagnostica.” for “µL.”

[1] = tested on: FeCl3-induced platelet-dependent arterial thrombosis; conditions: rat, [Isolated clot/(Intact segment-Empty segment)] X 100, mean ± S.E.M., control 68.65±3.75
Method: In this model a platelet-rich, occlusive thrombus is formed in a segment of the rat carotid artery treated with a fresh solution of FeCl3 absorbed to a piece of filter paper. […] The effect of a test compound on the incidence of occlusive thrombus formation following the application of the FeCl3 is monitored by ultrasonic flowtometry and is used as the primary end point.
Male Harlan Sprague Dawley rats (420-450 g) were acclimated at least 72 hours prior to use and fasted for 12 hours prior to surgery with free access to water. The animals were prepared, anesthetized with Nembutal with catheters for blood pressure monitoring, drug and anesthesia delivery being implanted as described above. The left carotid artery was isolated by making a midline cervical incision followed by blunt dissection and spreading techniques to separate a 2 cm segment of the vessel from the carotid sheath. A silk suture is inserted under the proximal and distal ends of the isolated vessel to provide clearance for the placement of a ultrasonic flow probe (Transonic) around the proximal end of the vessel. The probe is then secured with a stationary arm.
The test compounds were administered as described above after placement of the flow probe and stabilization of the preparation for a period of 30 min prior to the thrombogenic stimulus. At t=0, a 3mm diameter piece of filter paper (Whatman #3) soaked with 10 mL of a 35% solution of fresh FeCl3 (made up in water) was applied the segment of isolated carotid artery distal to the flow probe. Blood pressure, blood flow, heart rate, and respiration were monitored for 60 minutes.
The incidence of occlusion (defined as the attainment of zero blood flow) was recorded as the primary end point. Following the 60 minute observation period the flow probe was removed and the area cleared of all excess fluid. The distal and proximal sutures were tied off and arterial clamps placed on the far proximal and distal ends of the segment. […] The segment was reweighed following removal of the clot and the difference recorded as total % clot weight. […]

Chain of human plasmin (P00747 581-810 limits assumed): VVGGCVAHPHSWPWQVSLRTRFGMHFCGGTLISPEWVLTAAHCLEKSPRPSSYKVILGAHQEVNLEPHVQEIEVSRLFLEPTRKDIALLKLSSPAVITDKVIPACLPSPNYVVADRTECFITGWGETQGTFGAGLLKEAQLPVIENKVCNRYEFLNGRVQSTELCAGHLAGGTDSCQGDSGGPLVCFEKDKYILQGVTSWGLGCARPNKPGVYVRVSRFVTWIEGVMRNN
Chain of human plasmin (P00747 97-580 partner limits assumed): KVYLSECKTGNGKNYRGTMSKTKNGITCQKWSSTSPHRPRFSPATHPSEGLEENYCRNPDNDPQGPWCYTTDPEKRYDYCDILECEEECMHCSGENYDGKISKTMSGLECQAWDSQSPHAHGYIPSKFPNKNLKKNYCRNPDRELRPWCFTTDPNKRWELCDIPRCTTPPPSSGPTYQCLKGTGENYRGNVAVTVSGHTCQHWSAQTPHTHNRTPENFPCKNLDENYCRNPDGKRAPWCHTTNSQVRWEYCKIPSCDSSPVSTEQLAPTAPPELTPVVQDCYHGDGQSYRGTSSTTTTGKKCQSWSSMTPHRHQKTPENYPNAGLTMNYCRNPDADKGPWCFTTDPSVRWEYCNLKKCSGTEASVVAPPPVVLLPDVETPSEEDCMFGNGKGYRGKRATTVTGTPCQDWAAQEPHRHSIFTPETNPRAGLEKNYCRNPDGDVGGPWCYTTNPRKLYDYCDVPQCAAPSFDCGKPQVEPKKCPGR
T1 sequence (P00742 235-488 limits assumed): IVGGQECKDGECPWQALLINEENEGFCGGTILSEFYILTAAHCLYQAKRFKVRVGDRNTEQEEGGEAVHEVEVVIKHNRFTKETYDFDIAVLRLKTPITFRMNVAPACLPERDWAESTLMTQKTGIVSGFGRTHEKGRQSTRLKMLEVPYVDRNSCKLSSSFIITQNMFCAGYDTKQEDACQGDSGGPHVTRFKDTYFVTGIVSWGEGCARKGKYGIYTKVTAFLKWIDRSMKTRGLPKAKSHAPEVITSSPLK
T1 sequence (P00742 41-179 partner limits assumed): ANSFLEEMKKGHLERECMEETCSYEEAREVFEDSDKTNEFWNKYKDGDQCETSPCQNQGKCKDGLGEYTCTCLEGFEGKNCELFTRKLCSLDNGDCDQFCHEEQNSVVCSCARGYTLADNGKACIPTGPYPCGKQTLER

Molecule | IC50 (Human factor Xa) | IC50 (human α-thrombin) | IC50 (human plasmin) | Clot Size ([1]; Group1: 25µg/kg/min i.v. infusion) | Clot Size ([1]; Group2: 50µg/kg/min i.v. infusion, p<0.01 vs Control) | Clot Size ([1]; Group3: 100µg/kg/min i.v. infusion, p<0.01 vs Control)
3-tetrazolyl-2-(4-methylvaleroylamido) propionoyl-L-prolyl-L-argininal [4MeV-Ala(Tzl)-Pro-Arg-al] | 64.5 nM | 88 nM | 500 nM |  |  | 
CCCC(CCC)C(=O)N[C@@H](CC(=O)OC)C(=O)N1CCC[C@H]1C(=O)N[C@H](C=O)CCCNC(=N)N [2PrPent-Asp(OCH3)-Pro-Arg-al] | 293 nM |  | 326 nM |  |  | 
CCCC(CCC)C(=O)N[C@@H](CC(=O)O)C(=O)N1CCC[C@H]1C(=O)N[C@H](C=O)CCCNC(=N)N [2PrPent-Asp-Pro-Arg-al, N-(2-propylpentanoyl)-L-aspartyl-L-prolyl-L-argininal] | 173 nM | 8.5 nM | 283 nM |  |  | 
CC(C)CCC(=O)N[C@@H](CC(=O)O)C(=O)N1CCC[C@H]1C(=O)N[C@H](C=O)CCCNC(=N)N [4MeV-Asp-Pro-Arg-al, N-(4-methylpentanoyl)-L-aspartyl-L-prolyl-L-argininal] | 57 nM | 147 nM | 843 nM |  |  | 
N=C(N)NCCC[C@@H](C=O)NC(=O)[C@@H]1CCCN1C(=O)[C@H](CC(=O)O)NC(=O)CC1CCCCC1 [ChxAc-Asp-Pro-Arg-al, N-(1-cyclohexylacetyl)-L-aspartyl-L-prolyl-L-argininal] | 130 nM | 53.9 nM | 140 nM |  |  | 
N=C(N)NCCC[C@@H](C=O)NC(=O)[C@@H]1CCCN1C(=O)[C@H](CC(=O)O)NC(=O)CCC1CCCCC1 [ChxPA-Asp-Pro-Arg-al, N-(3-cyclohexanepropionyl)-L-aspartyl-L-prolyl-L-argininal] | 31 nM | 52.9 nM | 830 nM |  |  | 
COC(=O)C[C@H](NC(=O)CCc1ccccc1)C(=O)N1CCC[C@H]1C(=O)N[C@H](C=O)CCCNC(=N)N [HCA-Asp(OCH3)-Pro-Arg-al, N-(3-phenylpropanoyl)-L-aspartyl-β-(methyl ester)-L-prolyl-L-argininal] (Hydrocinnamoyl-Asp(OMe)-Pro-Arg-aldehyde) | 213 nM | 43.7 nM | 546 nM |  |  | 
N-(3-phenylpropanyl)-L-aspartyl-L-prolyl-L-argininal [HCA-Asp-Pro-Arg-al] | 91.5 nM | 234 nM | 326 nM | 48.38±24.71% | 22.38±21.0 % | 3.38±5.44 %
N-Boc-D-phenylalanyl-L-aspartyl-L-prolyl-L-argininal [Boc-(D-Phe)-Pro-Arg-al, reference compound] |  | 4.6 nM | 1000 nM |  |  | 
